Where no end group is shown, it is not given here.
Experiments:
C. albicans [1] = test: Kirby-Bauer disk diffusion, C. albicans; type: cell-based, Candida albicans; conditions: disks treated with 1 mM, five-day incubation at 30 °C
HEK293T [2] = test: Confocal microscopy of membrane integrity, HEK293T; type: cell-based, human; conditions: 100 µM prodrug, 3 hours at 37 °C, CellBrite Fix Membrane Stain 640
Experimental: (§1) standard curve: ∆PLCy5.5 vs. [fully-digested FRET probe]. Data were then fitted to the following Michaelis-Menten equation: ! = !!"#[…]. […]
(§2) amino acid sequences were provided. PEP-FOLD then employs a physics-based energy function […]
(§3) structures for the given peptide sequence. […]
(§4) dynamics sampling approach. […]
(§5) energy and the agreement with experimental or theoretical constraints. The algorithm selects the […]
(§6) allowed to grow overnight. […]
(§7) peptides for 3 hours at 37 °C. Next, cells were washed three times with sterile PBS. Mammalian […]
(§8) PBS (Thermo Scientific) at room temperature for 20 min. Cells were imaged by a confocal […]
(§9) Transmission Electron Microscopy. […]
(§10) by air drying overnight. Cellular morphology was conducted using the same microscope. Here, […]
(§11) nanomedicine lab (UCSD NanoEngineering). Cells were cultured in complete Dulbecco’s […]
(§12) Streptomycin), at 37 °C and 5% CO2. Passages were conducted with 0.25% Trypsin EDTA before […]
(§13) signal that is proportional to H2O2 concentration. Cells were seeded into 96-well plates (Corning, […]

HEK293T [3] = test: XTT viability assay, HEK293T; type: cell-based, human
P. gingivalis [4] = test: Kirby-Bauer disk diffusion, P. gingivalis; type: cell-based, Porphyromonas gingivalis; conditions: disks treated with 1 mM, five-day incubation at 37 °C
RgpB = biological target: T1, RgpB (Porphyromonas gingivalis, UniProt P95493); test: Enzyme digestion by recombinant RgpB (MALDI-TOF / ESI-MS); type: biochemical; conditions: 37 °C
T1 construct: gift from Professor Anthony O'Donoghue (UC San Diego)
Experimental: (§14) Probe activation, kinetics, and cytotoxicity.
(§15) Enzyme digestion. SAP9 and RgpB cleavage were both performed with 455 µM of peptide. […] Then, 10 µL of the enzyme at the appropriate concentration was added. An optimized final concentration of 300 nM for SAP9 and 200 nM for RgpB were used. The solution was incubated at 37 °C for 3 hours for RgpB and SAP9 for optimal cleavage.

C. albicans [5] = test: ROS H2O2 luminescence assay, C. albicans; type: cell-based, Candida albicans; conditions: 10 μM, 4 hours, ROS-Glo H2O2 assay, versus cells + PBS
Experimental: (§16) The assay uses an H2O2 substrate that reacts directly with H2O2 to generate a luciferin precursor [55]. It was predicted that exposure of the microorganisms to the prodrug would lead to alterations in their normal physiological processes thus triggering a stress response and inducing the generation of ROS. […] This is consistent with previous studies wherein ROS production is credited as the secondary event of the fungicidal mechanism of P-113 [56]. […]
as §7
(§17) PBS (Thermo Scientific) at room temperature for 20 min. […]
(§18) Cells were cultured in complete Dulbecco’s
as §12, §13
(§19) then incubated for 4 hours at 37 °C before 100µl of ROS-Glo™ Detection Solution was added to each well. Finally, the plate was incubated for 20 minutes at room temperature and the relative luminescence was recorded using a plate reader (Synergy H1, BioTek). […]
(§20) LoB = meanblank + 1.645 (SDblank) […]
(§21) LoD = LoB + 1.645 (SDlow concentration sample).
(§22) Statistical Analysis. Statistical analysis was conducted using GraphPad Prism 10. […]
(§23) A P-value of < 0.05 was […]
(§24) considered significant. […]

C. albicans [6] = tested on: C. albicans; design: method as in PMID 27458227; conditions: previous work; cited from earlier work
SAP9 = biological target: T2, SAP9 (Candida albicans, UniProt Q59SU1); test: Enzyme digestion by recombinant SAP9 (MALDI-TOF / ESI-MS); type: biochemical; conditions: 37 °C; for Cleavage / degradation by SAP9: 300 nM recombinant SAP9, 3 h, 9.5 mM MES, 2.7 mM KCl, 140 mM NaCl pH 5.5, 455 µM peptide, MALDI-TOF (ESI-MS for P-113)
T2 construct: purchased MyBioSource (San Diego, CA)
Experimental: as §14, §15

P. gingivalis [7] = test: ROS H2O2 luminescence assay, P. gingivalis; type: cell-based, Porphyromonas gingivalis; conditions: 10 μM, 4 hours, ROS-Glo H2O2 assay, versus cells + PBS
Experimental: as §16, §7, §17, §18, §12, §13, §19, §20, §21, §22, §23, §24

C. albicans [8] = test: XTT viability assay, C. albicans; type: cell-based, Candida albicans; conditions: intact peptide, 10 µM, 3 h at 37 °C, absorbance 490 nm, sextuplet measurements
Experimental: Fungal culture. In situ culturing C. albicans (ATCC 90028) from lyophilized stock (KWIK-STIK, VWR) was conducted on Sabouraud dextrose agar plates (Sigma-Aldrich) 2 to 5 days in advance of the antifungal assay. The plates were then incubated at 30°C and pearl-like colonies were observed, indicative of C. albicans. Single colonies were then extracted with sterilized inoculation loops and inoculated in 3 mL yeast extract peptone dextrose (YEPD) medium (2% Bacto^TMpeptone, 2% Dextrose, 1% Yeast extract in H2O) using Biological Safety Level 2 (BSL-2) practices and procedures. Note, the broth was autoclaved before use and stored at room temperature. […] The culture was finally diluted 1:100 and the OD600 was measured wherein OD600 = 0.5 a.u. correlates to approximately 1 × 10^6 cells/ mL in 100 µL RPMI-1640 medium with L-glutamine and 3-(N-morpholino)propane sulfonic acid (MOPS) without sodium bicarbonate, pH 7.0. […]
Viability assay. The percent toxicity was calculated using an XTT (2,3-bis-(2-methoxy-4-nitro-5-sulfophenyl)-2H-tetrazolium-5-carboxanilide) colorimetric assay (Biotium) wherein viable cells form an orange formazan product upon reduction. […] The absorbance of the formazan dye was measured at a wavelength of 490 nm using a microplate reader. Here, the absorbance is directly proportional to the number of viable cells present in each well. […]

C. albicans [9] = test: TEM of cell morphology, C. albicans; type: cell-based, Candida albicans; conditions: 3 hours at 37 °C; S1 at 40 µM
Description: (§25) Finally, the target microorganisms were also imaged using transmission electron microscopy (TEM) to visualize the cell morphology. Figure 3C presents C. albicans cells. On the left, the untreated cells show a rigid and intact membrane in contrast to the […] (+ S1) showing decreased cell density and clear destruction of the membranes. This obvious change in morphology is seen at other magnifications (Supplementary Figure S19). […]
as §1, §2, §3, §4, §5, §6, §7, §8, §9, §10, §11, §12

P. gingivalis [10] = test: XTT viability assay, P. gingivalis; type: cell-based, Porphyromonas gingivalis; conditions: 10 µM
P. gingivalis [11] = test: TEM of cell morphology, P. gingivalis; type: cell-based, Porphyromonas gingivalis; conditions: 3 hours at 37 °C; G1 at 40 µM
Description: as §25, §1, §2, §3, §4, §5, §6, §7, §8, §9, §10, §11, §12

F. nucleatum = test: XTT viability assay, F. nucleatum; type: cell-based, Fusobacterium nucleatum; conditions: intact peptide

T2 sequence (Q59SU1 18-544): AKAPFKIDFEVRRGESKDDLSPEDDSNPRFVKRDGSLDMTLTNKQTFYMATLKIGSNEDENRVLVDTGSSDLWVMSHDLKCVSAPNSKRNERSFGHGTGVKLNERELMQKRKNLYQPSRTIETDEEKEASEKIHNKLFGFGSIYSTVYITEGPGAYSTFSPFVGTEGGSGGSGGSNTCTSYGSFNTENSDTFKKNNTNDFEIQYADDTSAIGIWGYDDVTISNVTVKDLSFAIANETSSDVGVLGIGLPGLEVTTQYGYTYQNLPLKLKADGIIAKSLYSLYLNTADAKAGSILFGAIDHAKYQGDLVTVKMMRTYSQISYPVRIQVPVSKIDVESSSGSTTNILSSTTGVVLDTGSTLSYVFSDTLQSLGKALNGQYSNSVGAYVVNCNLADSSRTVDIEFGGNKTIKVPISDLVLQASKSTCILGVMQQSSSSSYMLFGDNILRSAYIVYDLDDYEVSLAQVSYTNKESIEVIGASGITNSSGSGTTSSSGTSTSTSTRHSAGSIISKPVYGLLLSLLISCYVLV
T1 sequence (P95493 230-736): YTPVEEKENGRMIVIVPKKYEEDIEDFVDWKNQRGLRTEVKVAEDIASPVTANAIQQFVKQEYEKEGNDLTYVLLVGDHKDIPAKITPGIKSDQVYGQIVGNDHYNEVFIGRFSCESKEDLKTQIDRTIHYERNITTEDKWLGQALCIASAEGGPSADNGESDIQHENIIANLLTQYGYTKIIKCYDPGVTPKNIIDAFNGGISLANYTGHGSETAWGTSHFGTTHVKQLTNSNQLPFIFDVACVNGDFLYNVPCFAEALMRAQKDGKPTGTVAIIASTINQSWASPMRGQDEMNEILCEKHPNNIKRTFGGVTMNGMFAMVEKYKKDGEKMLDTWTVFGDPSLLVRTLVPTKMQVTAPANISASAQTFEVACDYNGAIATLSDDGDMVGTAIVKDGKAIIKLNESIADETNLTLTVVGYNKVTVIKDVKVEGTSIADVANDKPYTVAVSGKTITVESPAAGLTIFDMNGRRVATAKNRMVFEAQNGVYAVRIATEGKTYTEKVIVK

For `OC(Cn1cncn1)(Cn1cncn1)c1ccc(F)cc1F` [FLZ, fluconazole, reference compound], the “Growth inhibition in disk diffusion test” value (C. albicans [1]) was “Obvious growth inhibition”.

With AKRHHGYKRKFHGGAGPRIDGGDDDDDD-NH2 [G1] the “Membrane integrity by confocal microscopy” value (HEK293T [2]) was “membrane remained intact” and the “Toxicity to HEK293T compared to P-113” value (HEK293T [3]; intact prodrug, 10 µM, XTT) was “decreased toxicity by nearly half”.

In the case of “Ac-AKRHHGYKRKFH-NH2 [P-113, reference compound]”, the “Growth inhibition in disk diffusion test” value (P. gingivalis [4]) is reported as “Colony growth is inhibited”, the “Cleavage / degradation by RgpB” value (RgpB; 200 nM recombinant RgpB, 3 h, 0.2 M Tris HCl pH 7.6, 5 mM CaCl2, 100 mM NaCl, 40 mM TCEP, 455 µM peptide, MALDI-TOF (ESI-MS for P-113)) is reported as “no degradation” and the “H2O2 ROS generation, relative luminescence” value (C. albicans [5]) is reported as “six-fold increase”. The MIC (C. albicans [6]) was 10 µM, the “Growth inhibition in disk diffusion test” value (C. albicans [1]) was “Obvious growth inhibition” and the “Cleavage / degradation by SAP9” value (SAP9) was “no degradation”. The “MIC for HEK293T relative to MIC for the oral microorganisms” value (HEK293T [3]) was roughly 100 times and the “H2O2 ROS generation, relative luminescence” value (P. gingivalis [7]) was “six-fold increase”.

In the case of “Ac-AKRHHGYKRKFHGGVKKKDVVDGGDDDDDD-NH2 [S1]”, the Percent toxicity (C. albicans [8]) is reported as 70%, the “Cell morphology by TEM” value (C. albicans [9]) is reported as “decreased cell density and cell rupturing” and the “Growth inhibition in disk diffusion test” value (P. gingivalis [4]) is reported as “No growth inhibition”. For the same molecule, the “Change of percent toxicity upon cleavage” value (P. gingivalis [10]; S1 pre-cleaved in vitro by 300 nM recombinant SAP9 versus intact (30%)) was “nearly doubled”, the Percent toxicity (P. gingivalis [10]; intact peptide, 3 h at 37 °C, absorbance 490 nm, sextuplet measurements) was 30% and the “Cleavage by RgpB, S1 and G1 co-incubated” value (RgpB; joint solution of S1 and G1, RgpB 300nM, 3 hours, MALDI-TOF) was “S1 remaining intact”. The “Cell morphology by TEM” value (P. gingivalis [11]) was “intact cell structures”, the “H2O2 ROS generation, relative luminescence” value (C. albicans [5]) was “six-fold increase” and the “Inhibited growth relative to the positive control treatment (FLZ)” value (C. albicans [1]; disk diffusion, diameter relative to fluconazole) was “approximately 70%”. For the same molecule, the “Growth inhibition in disk diffusion test” value (C. albicans [1]) was “Obvious growth inhibition”, the Percent toxicity (F. nucleatum; 10 µM, 3 h at 37 °C) was 15% and the “Percent toxicity, highest over the titration” value (F. nucleatum; all tested concentrations) was no more than 50%. For the same molecule, the “Cleavage / degradation by SAP9” value (SAP9) was “obvious mass peaks corresponding to the cleaved fragments”, the “Cleavage by SAP9, S1 and G1 co-incubated” value (SAP9; joint solution of S1 and G1, SAP9 300 nM, 3 hours, MALDI-TOF) was “S1 converting to S1 fragment” and the “H2O2 ROS generation, relative luminescence” value (P. gingivalis [7]) was “little luminescence”.

— paper PMC10879876, “Activatable prodrug for controlled release of an antimicrobial peptide via the proteases overexpressed in Candida albicans and Porphyromonas gingivalis” (Theranostics, 2024)
